Biological target: T1, KIT V559D T670I (Homo sapiens, UniProt P10721, T670I/V559D)
T1 construct: purchased Thermo Fisher Scientific (Life Technologies) SelectScreen
Assay: SelectScreen LanthaScreen
Type: binding
Conditions: read-out: % displacement
Summary of the method: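 SelectScreen broad panel; activity (Z'LYTE, Adapta) plus binding formats. ATP: Km app for CSF1R Z'LYTE; 10 for CAMK1 Adapta. Readout = % per kinase.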

T1 sequence (P10721 26-976 V559D/T670I): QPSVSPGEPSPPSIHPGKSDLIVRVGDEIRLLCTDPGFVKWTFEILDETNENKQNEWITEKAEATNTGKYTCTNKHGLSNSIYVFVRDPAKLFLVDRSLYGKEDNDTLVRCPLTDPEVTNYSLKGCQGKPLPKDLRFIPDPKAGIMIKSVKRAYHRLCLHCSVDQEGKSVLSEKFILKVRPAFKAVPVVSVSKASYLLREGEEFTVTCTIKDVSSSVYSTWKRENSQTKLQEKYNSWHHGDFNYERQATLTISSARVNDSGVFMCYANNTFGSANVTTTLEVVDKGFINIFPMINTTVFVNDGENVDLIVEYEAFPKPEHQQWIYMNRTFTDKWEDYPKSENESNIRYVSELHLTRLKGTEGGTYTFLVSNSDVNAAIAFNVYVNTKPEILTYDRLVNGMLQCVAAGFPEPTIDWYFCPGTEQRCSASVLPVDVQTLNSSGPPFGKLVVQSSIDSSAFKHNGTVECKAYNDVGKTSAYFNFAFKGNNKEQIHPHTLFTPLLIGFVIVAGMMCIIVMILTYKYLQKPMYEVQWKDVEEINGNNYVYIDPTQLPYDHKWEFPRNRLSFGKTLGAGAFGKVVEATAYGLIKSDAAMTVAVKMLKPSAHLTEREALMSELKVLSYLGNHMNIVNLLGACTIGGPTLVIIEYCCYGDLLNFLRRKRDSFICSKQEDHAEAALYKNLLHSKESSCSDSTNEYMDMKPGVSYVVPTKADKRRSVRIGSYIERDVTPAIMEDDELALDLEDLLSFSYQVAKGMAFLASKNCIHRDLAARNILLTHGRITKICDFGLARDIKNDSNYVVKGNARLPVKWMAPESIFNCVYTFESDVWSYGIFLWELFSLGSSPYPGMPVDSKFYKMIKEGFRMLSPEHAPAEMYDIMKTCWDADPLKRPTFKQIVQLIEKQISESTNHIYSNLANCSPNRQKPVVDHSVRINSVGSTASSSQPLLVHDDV

How did the inhibition at 1 µM turn out when `CN(C(=O)CN1CCOCC1)c1ccc2sc3c(-c4cccc5c(=O)cc(N6CC7CCC(C6)O7)oc45)cccc3c2c1` [NU5455] was run?
The inhibition at 1 µM was 3.1%.
